Source: patent US20260191853A1, “METHOD OF TREATING DRUG-INDUCED BRADYARRHYTHMIA” (OSAKA UNIVERSITY, priority 2022, published 2026)

Test system: Wistar rats
Experiment: Therapeutic effect on propranolol-induced bradyarrhythmia in conscious rat (telemetry)
Format: in vivo
Details: compound (I) dihydrochloride 1 mg/kg i.p. about 30 min after propranolol 1 mg/kg i.p.; awake rats; FIG. 8
From the text: Wistar rats (10 weeks old, male, available from Kiwa Laboratory Animals Co., Ltd.) were anesthetized by inhalation of Sevofrane (available from Maruishi Pharmaceutical Co., Ltd.) and held on an operating table. An implantable telemetry transmitter ETA-F10 (DSI) was placed subcutaneously in each rat, and one lead was fixed to each of the upper right chest and the left lower chest. After being fully awakened, the rat was placed in a cage on the receiving board, and a body surface electrocardiogram was measured with a high-sensitivity amplifier. Electrocardiogram data were acquired and analyzed with LabChart Pro & LabChart module (available from Bio Research Center Co., Ltd.). After stabilization of the heart rate, propranolol (Inderal Injection, available from AstraZeneca K.K.) was administered by intraperitoneal injection at a dose of 1 mg/kg. After the elapse of about 30 minutes, the stabilization of the heart rate was determined, and then saline or compound (I) dihydrochloride was administered by intraperitoneal injection at a dose of 1 mg/kg. Thirty minutes after the administration, the heart rate in a stable state was measured for evaluation. The solvent used was saline (available from Otsuka Pharmaceutical Factory, Inc.). […]

Cc1cc(CO)nc2cc3c(cc12)OC(C)(C)[C@H](O)[C@H]3NCCc1ccccc1 [Compound (I), (3R,4S)-7-Hydroxymethyl-2,2,9-trimethyl-4-(phenethylamino)-3,4-dihydro-2H-pyrano[2,3-g]quinoline-3-ol]
propranolol-induced bradycardia (heart rate): improved bradycardia
